Data: patent publication US4518789A, “Phenyl alpha-acyloxyacetamide derivatives and their therapeutic use” (priority 1983, dated 1985)

Tests used:
[1] = tested on: calming or sedative effects; assay: Tranquilizing effect, oral administration in dogs; type: in vivo; settings: for tranquilizing / sedative effect: test compounds 5 to 10 mg per kg
Protocol: Hairless mice, white hairy mice and dogs were used in these studies.
Three dogs weighing between 10 to 20 kg were given orally N-phenethyl phenyl-alpha-acetoxyacetamide or N-ethyl phenyl-alpha-acetoxyacetamide in gelating capsules at doses of 5 to 10 mg per kg.

[2] = tested on: Eczemas, and Other Pruritic Disorders; assay: Topical anti-pruritic effect in patients with pruritic disorders; type: in vivo, human
Text: Patients with various kinds of pruritic disorders participated in this study. The cases included atopic eczema, patchy eczema, chronic eczema of the hands, lichen simplex chronicus, contact allergic eczema, pruritus of the aged, pruritus of hepatic origin, pruritus ani, pruritus vulvae, scalp pruritus and pruritus of other disorders such as mycosis fungoides, psoriasis and pityriasis rubra pilaris.
Therapeutic compositions containing phenyl-alpha-acyloxyacetamides at 2 to 5% concentrations in cream, ointment, lotion or solution were prepared according to the Examples. The medicinal compositions were topically applied by the patient in an amount sufficient to cover the itching area of skin. Applications were made one to two times daily or as frequently as necessary and without occlusive dressings.
Two parameters have been used to compare degrees of anti-pruritic effect of phenyl-alpha-acyloxyacetamides. The first parameter is whether the relief of itching is complete (2+) or incomplete (1+). The second parameter is the number of hours the patient stays free of pruritus after the initial anti-pruritic effect. […] Therefore, the overall anti-pruritic effect of a compound may range from 2+ to 4+. […] 4+ for complete relief and lasting for more than 8 hours.

[3] = tested on: itch provoked by papain or histamine dihydrochloride; assay: Anti-pruritic effect on normal human skin (papain or histamine induced itch); type: in vivo; settings: 2 to 5% topical, normal human adult volunteers
Protocol: Itch provoking pruritic compositions were prepared as follows: papain 0.5% solution was prepared by dissolving papain 50 mg in 10 ml of saline, and histamine 0.2% solution was prepared by dissolving histamine dihydrochloride 20 mg in 10 ml of saline. Itching was provoked or induced as follows: a pruritic composition in a volume of 0.05 ml containing papain or histamine dihydrochloride as a pruritic agent was topically applied on the flexor forearm of normal human adult volunteers and the skin site was gently pricked rapidly through the solution with a 26-gauge needle to the level of the papillary dermis as described by Bernstein et al. (J. E. Bernstein, R. M. Swift, K. Soltani and A. L. Lorincz: Antipruritic Effect of an Opiate Antagonist, Naloxone Hydrochloride in Journal of Investigative Dermatology 78, 82-83, 1982). This technique provoked or induced itch sensation at the test skin site within a few minutes following the topical application of the pruritic composition. After itch sensation had been induced a composition containing 2 to 5% N-ethyl phenyl-alpha-acetoxyacetamide, N-phenethyl phenyl-alpha-acetoxyacetamide or other phenyl-alpha-acyloxyacetamide derivatives of the instant invention was topically applied on the pruritic skin site. The vehicle alone cream containing no active ingredient was used as a control.

[4] = first category compounds, 2 to 5%
[5] = intermediate and related compounds

Row | SMILES | Anti-pruritic Effect [2, 4] | other results
1 | CN(C)CCOC(c1ccccc1)c1ccccc1 [Benadryl] |  | soporific or drowsy effects [1]: soporific and drowsy effects; tranquilizing / sedative effect [1]: substantial sedative effects
2 | CC(=O)OC(C(=O)N(Cc1ccccc1)Cc1ccccc1)c1ccccc1 (stereo not drawn) [N,N-dibenzyl phenyl-alpha-acetoxyacetamide] | 3+ | 
3 | CCN(CC)C(=O)C(OC(C)=O)c1ccccc1 (stereo not drawn) [N,N-diethyl phenyl-alpha-acetoxyacetamide] | 4+ (complete relief and lasting for more than 8 hours) | 
4 | CC(=O)OC(C(=O)NCc1cccnc1)c1ccccc1 (stereo not drawn) [N-3'-picolyl phenyl-alpha-acetoxyacetamide] |  | Anti-pruritic Effect [2, 5]: 3+
5 | COc1ccc(CCNC(=O)C(OC(C)=O)c2ccccc2)cc1OC (stereo not drawn) [N-(3,4 -dimethoxyphenethyl)phenyl-alpha-acetoxyacetamide] | 4+ (complete relief and lasting for more than 8 hours) | 
6 | CCN(CC)CCNC(=O)C(OC(C)=O)c1ccccc1 (stereo not drawn) [N-(N',N'-diethylaminoethyl)phenyl-alpha-acetoxyacetamide] |  | Anti-pruritic Effect [2, 5]: 3+
7 | CC(=O)OC(C(=O)NCc1ccccc1)c1ccccc1 (stereo not drawn) [N-benzyl phenyl-alpha-acetoxyacetamide] | 4+ (complete relief and lasting for more than 8 hours) | 
8 | CCNC(=O)C(OC(=O)Cc1ccccc1)c1ccccc1 (stereo not drawn) [N-ethyl phenyl-alpha-phenylacetoxyacetamide] | 4+ (complete relief and lasting for more than 8 hours) | 
9 | CC(=O)OC(C(=O)NCCSCCO)c1ccccc1 (stereo not drawn) [N-hydroxyethylthioethylphenyl-alpha-acetoxyacetamide] | 3+ | 
10 | CC(=O)OC(C(=O)NC(C)C)c1ccccc1 (stereo not drawn) [N-isopropyl phenyl-alpha-acetoxyacetamide] | 3+ | 
11 | CNC(=O)C(OC(C)=O)c1ccccc1 (stereo not drawn) [N-methyl phenyl alpha-acetoxyacetamide] | 3+ | 
12 | CC(=O)OC(C(=O)NCc1ccc(Cl)cc1)c1ccccc1 (stereo not drawn) [N-p-chlorobenzyl phenyl-alpha-acetoxyacetamide] | 4+ (complete relief and lasting for more than 8 hours) | 
13 | COc1ccc(CNC(=O)C(OC(C)=O)c2ccccc2)cc1 (stereo not drawn) [N-p-methoxybenzyl phenyl-alpha-acetoxyacetamide] | 4+ (complete relief and lasting for more than 8 hours) | 
14 | COc1ccc(CCNC(=O)C(OC(C)=O)c2ccccc2)cc1 (stereo not drawn) [N-p-methoxyphenethyl phenyl-alpha-acetoxyacetamide] | 4+ (complete relief and lasting for more than 8 hours) | 
15 | CC(=O)OC(C(=O)NCCc1ccccc1)(c1ccccc1)c1ccccc1 [N-phenethyl diphenyl-alpha-acetoxyacetamide] |  | Anti-pruritic Effect [3]: substantial anti-pruritic effect
16 | CCC(=O)OC(C(=O)NCCc1ccccc1)(c1ccccc1)c1ccccc1 [N-phenethyl diphenyl-alpha-propionyloxyacetamide] |  | duration of anti-pruritic effect ([2]; 2 to 5%, after initial anti-pruritic effect): less than 8 hours; relief of itching (in words) ([2]; all patients tested): completely abolished itch sensations
17 | CC(=O)OC(C(=O)OC(C(=O)NCCc1ccccc1)c1ccccc1)c1ccccc1 (stereo not drawn) [N-phenethyl phenyl-alpha-(o-acetylmandeloyloxy)acetamide] |  | Anti-pruritic Effect [2, 5]: 3+
18 | O=C(NCCc1ccccc1)C(O)c1ccccc1 (stereo not drawn) [N-phenethyl phenyl-alpha-hydroxyacetamide] |  | Anti-pruritic Effect [2, 5]: 3+
19 | CCC(=O)OC(C(=O)NCCc1ccccc1)c1ccccc1 (stereo not drawn) [N-phenethyl phenyl-alpha-propionyloxyacetamide] | 3+ | 
20 | CC(=O)OC(C(=O)NC(C)(C)C)c1ccccc1 (stereo not drawn) [N-t-butyl phenyl-alpha-acetoxyacetamide] | 4+ (complete relief and lasting for more than 8 hours) | 
21 | CN1C(=O)CN=C(c2ccccc2)c2cc(Cl)ccc21 [Valium] |  | soporific or drowsy effects [1]: soporific and drowsy effects; tranquilizing / sedative effect [1]: substantial sedative effects
